From patent publication US20260212981A1, “Methods of drug dosing based on early pharmacokinetics” (NUTROMICS […] LTD, priority 2022, published 2026)
Read-outs that look alike come from different tables or passages of the source.

Tests used:
Type in all cases: in vivo
[1] = Vancomycin concentration in blood/serum of human participants (blood draws); conditions: blood, iv, 1 gram, single 1 gram IV infusion over 1 hour 40 minutes
Procedure: These human studies were performed at Monash Health, Monash Medical Centre, Clayton, Victoria 3168, Australia, under protocol reference number 2021/ETH80521 and protocol trial identified and registry 80521. Institutional Ethics Committee approval was obtained before commencement of the study.
(§1) 30 minutes (+15 minutes) post-application of the device, the participant received a single dose of vancomycin as an intravenous infusion (1 gram over 1 hour 40 minutes). The time of administration and completion of infusion was recorded.
Blood samples for the measurement of vancomycin concentrations were collected prior to the administration of vancomycin infusion, 30 minutes (±5 minutes) and 1 hour (±10 minutes) during the infusion, at the end of the infusion (±15 minutes) and then at 40 minutes (±15 minutes), 1.5 hours (±15 minutes), 2 hours (±15 minutes), 3 hours (±15 minutes), 4 hours (±15 minutes), 6 hours (±15 minutes), 8 hours (±15 minutes) and 10 hours (±15 minutes) after the infusion has been completed.
These human studies characterised perfusion dynamics. The study was performed in relation to a 1000 mg vancomycin dose administered via venous infusion.
ISF dynamics are captured in real-time high resolution (every 5 minutes) detection of vancomycin concentration. […] In comparison to blood (Cmax, ~30 mg/L) very little vancomycin was monitored in the ISF compartment (Cmax~6 mg/L) which is interpreted as a low level of perfusion

[2] = Vancomycin concentration in dermal interstitial fluid (ISF) of human participants by wearable EAB sensor; conditions: 1 gram; for Kp: dermal interstitial fluid (ISF) relative to blood, intravenous, read-out: Proportion of vancomycin monitored in ISF compartment in comparison to blood; for Cmax: dermal interstitial fluid (ISF), iv, read-out: Cmax in ISF compartment
Text: These human studies followed vancomycin levels using an EAB sensor (which may also be referred to as the “device”). The device was a self-contained wearable EAB sensor, constructed, having an on-board power supply, electrodes, and electronics, including a microprocessor and BlueTooth™ communications module.
The EAB sensor comprised four electrodes: two aptamer-coated working electrodes, a counter electrode, and a reference electrode. All electrodes were in the form of a microneedle configured to pierce the skin and contact the participant's ISF when fully inserted into the dermal tissues.
Each working electrode was coated with a vancomycin-sensitive single-stranded DNA-aptamer having a length of 28 nucleobases, obtained from Dr. Milan STOJANOVIC, New York campus research laboratory of The Trustees of Columbia University in the City of New York of 80 Claremont Avenue, 4th Floor, New York, NY 10027, United States.
A vancomycin-sensitive EAB sensor was placed onto the participant's upper arm (see FIG. 20), opposite the arm where vancomycin was being infused. The time of device application was recorded. The device was applied 30 minutes (+15 minutes) prior to administering the vancomycin infusion and the device was removed up to 10 hours post-cessation of the infusion.
as §1
Once applied to the participant, the DNA-based sensor electrodes were interrogated, and output treated as follows.
Square Wave Voltammetry (SWV) was used to interrogate the DNA-based sensor electrodes. Multiple steps were performed to convert the raw voltammograms obtained from the DNA-based sensor electrodes into a vancomycin concentration. The steps detailed below convert the raw SWV voltammograms into a signal that is indicative of the analyte concentration. • 1. Smooth the raw SWV voltammogram current versus voltage data to aid identification of the current peak and its magnitude. • 2. Apply a peak finding algorithm to the smoothed voltammogram to identify the position of the peak and to subtract a baseline current to determine a peak current magnitude. • 3. Use the determined peak currents magnitudes obtained at two different SWV interrogation frequencies (in this case 50 Hz and 300 Hz), when no vancomycin is present and when it is present to calculate an analyte concentration responsive signal (S). • 4. Smooth the S values over time, prior to applying a calibration function.
Steps 1 to 3 were used to analyse the calibration data as detailed below at (a) and (b), and steps 1 to 4 above in relation to the clinical data. • (a) Calibration data was produced from in vitro testing, where vancomycin is spiked into bovine plasma and tested using electrodes from the same production batch as those used in the clinical experiments (but not the electrode actually used in the clinical experiments). The purpose of this testing was to produce S versus known vancomycin concentration data that can be used to produce a calibration function to convert the S values into the corresponding measured vancomycin concentration values ([V]). • (b) Clinical experiment data, where the calibration function determined in (a) is applied to the S values produced by the in vivo electrodes in the clinical experiment, to convert them to measured vancomycin concentrations. […]

[3] = Skin surface temperature / adverse event monitoring of human participants during vancomycin infusion; conditions: for Physiologic response (skin surface temperature): temperature every 5 minutes
Text: Reference is made to FIG. 21A and FIG. 21B each showing a computer-rendered representation of the device (10) used in these studies, indicating one of the microneedles (30), the power supply, being a battery (105), a printed circuit board (110) having various electronic components such as the communications module and microprocessor mounted thereon, and a thermistor (115) functioning to contact the skin surface of the participant and provide an estimation of the temperature of the underlying ISF.
Participants were monitored throughout the study duration for any adverse events. Given the duration of the study visit, participants were required to stay overnight. In the absence of any adverse events, participants were discharged the following morning after being observed for at least 15 minutes post removal of the device.
The EAB sensor used in these studies penetrated 1-2 mm into the dermal interstitial compartment with micron diameter electrodes coated with a specific DNA sequence for vancomycin detection. Additionally, the EAB sensor continuously monitored (every 5 minutes) surface temperature where the normal temperature range for a human is characterised between 31-35.5° C.

[4] = participant 014 (hyper-perfusion phenotype)

## CN[C@H](CC(C)C)C(=O)N[C@H]1C(=O)N[C@@H](CC(N)=O)C(=O)N[C@H]2C(=O)N[C@H]3C(=O)N[C@H](C(=O)N[C@H](C(=O)O)c4cc(O)cc(O)c4-c4cc3ccc4O)[C@H](O)c3ccc(c(Cl)c3)Oc3cc2cc(c3O[C@@H]2O[C@H](CO)[C@@H](O)[C@H](O)[C@H]2O[C@H]2C[C@](C)(N)[C@H](O)[C@H](C)O2)Oc2ccc(cc2Cl)[C@H]1O [vancomycin]
[1]; participant 012 (hypo-perfusion phenotype), 12 blood draws over 12 hours
  Cmax: ~30000 ng/mL
[1]; [4]
  Cmax: ~35000 ng/mL
[1]; participant 015 (moderate-perfusion phenotype), 12 blood draws over 12 hours
  Cmax: ~30000 ng/mL
[2]; [4]
  Kp: ~0.86
[2]; participant 015 (moderate-perfusion phenotype)
  Kp: ~0.3
[2]; participant 012 (hypo-perfusion phenotype), EAB sensor 812, single 1 gram IV infusion, read every 5 minutes
  Cmax: ~6000 ng/mL
[2]; participant 014 (hyper-perfusion phenotype), EAB sensor 810, single 1 gram IV infusion
  Cmax: ~10000 ng/mL
[2]; participant 015 (moderate-perfusion phenotype), EAB sensor 818, single 1 gram IV infusion, read every 5 minutes
  Cmax: ~10000 ng/mL
[3]; participant 012, no elevations above 36° C.
  Physiologic response (skin surface temperature): no physiologic response
[3]; participant 014, temperature elevations above 36° C. recorded, antihistamine treatment required
  Adverse reaction to vancomycin: sensitivity response to vancomycin which resulted in hives and itching
[3]; participant 015
  Physiologic response (skin surface temperature): no elevations depicting a physiological response
